Assay results taken from patent publication US20110160175A1, “18,21-Didesoxymacbecin Derivatives for the Treatment of Cancer” (priority 2006, published 2011).

Experiments:
[1] = molecular target: Hsp90 (Homo sapiens, UniProt P07900); conditions: cited from earlier work
[2] = system: panel of human tumour cell lines; test: Monolayer proliferation assay, mean IC70 across the cell line panel; assay type: cell-based; conditions: geometric mean of all replicates across the 6 cell lines; concentration inhibiting cell growth by 70%
Description: In vitro evaluation of compounds for anticancer activity in a panel of human tumour cell lines in a monolayer proliferation assay were carried out at the Oncotest Testing Facility, Institute for Experimental Oncology, Oncotest GmbH, Freiburg.
The Oncotest cell lines were established from human tumor xenografts as described by Roth et al., (1999). The origin of the donor xenografts was described by Fiebig at al., (1999). Other cell lines were either obtained from the NCl (DU145, MCF-7) or purchased from DSMZ, Braunschweig, Germany.
All cell lines, unless otherwise specified, were grown at 37° C. in a humidified atmosphere (95% air, 5% CO2) in a ‘ready-mix’ medium containing RPMI 1640 medium, 10% fetal calf serum, and 0.1 mg/mL gentamicin (PAA, Cölbe, Germany). […]
Briefly, cells were harvested from exponential phase cultures by trypsinization, counted and plated in 96 well flat-bottomed microtitre plates at a cell density dependent on the cell line (5-10.000 viable cells/well). […] After thawing the plates, fluorescence was measured using the Cytofluor 4000 microplate reader (excitation 530 nm, emission 620 nm), giving a direct relationship to the total number of viable cells. Growth inhibition may be expressed as treated/control×100 (% T/C). […]

Row | SMILES | binding affinity to Hsp90, fold greater than 17-AAG ([1]; relative to 17-AAG) [fold] | binding affinity to Hsp90, fold greater than geldanamycin ([1]; relative to geldanamycin) [fold] | average IC70 value across the cell-line panel [2] [µg/mL]
1 | CO[C@H]1C[C@H](C)Cc2cc(O)cc(c2)NC(=O)/C=C/CC[C@H](OC)[C@@H](OC(N)=O)/C(C)=C/[C@H](C)[C@H]1O [KOSN1559] | 8 | 4 | –
2 | CO[C@H]1[C@@H](OC)C[C@H](C)[C@@H](OC)C2=CC(=O)C=C(NC(=O)/C(C)=C/C=C\[C@H](C)[C@@H](OC(N)=O)/C(C)=C/[C@@H]1C)C2=O [macbecin] | – | – | 0.21
